{"source": "patent US12383566B2", "about": "“Inhibition of SLC transporter activity or expression to attenuate anthracycline-induced cardiotoxicity” (Northwestern University, priority 2021, dated 2025)", "key": {"sodium channel": {"tested_on": "sodium channel", "conditions": "among its group (tricyclic antidepressants); cited from earlier work"}, "[1]": {"conditions": "chronic use; cited from earlier work"}, "[2]": {"tested_on": "eight cancer cell lines (HEPG2, DLD1, LNCAP, SK-UT-1, HeLa, U2OS, Hs 578T, MDA-MB-231) and MCF breast cancer cell line", "assay": "Cell viability of cancer cell lines after doxorubicin and desipramine co-treatment", "type": "cell-based, human", "conditions": "eight cancer cell lines (breast, liver, colorectal, prostate, uterus, cervix, bone)", "description": "(§1) FIGS. 5A, 5B, 5C, 5D, 5E, 5F, and 5G. […] All drugs were used at 3 μM. […] LD50, median lethal dose. […] F, Ventricular fractional shortening at baseline, 1-, 2-, 3-weeks post treatment. […] For (D and G) log-logistic non-linear regression model was used to estimate the value of the four parameters, and t-statistic was used to test for significant difference in LD50 between different groups.\nBreast cancer cell lines."}, "[3]": {"conditions": "in vivo; cited from earlier work"}, "hiPSC-CMs [4]": {"tested_on": "hiPSC-CMs", "assay": "Validation of top FDA-approved cardioprotectants against 10 log-doses of doxorubicin (viability LD50)", "type": "cell-based, human", "conditions": "drug 3 μM, 72 h", "description": "as §1\n(§2) Next, we sought to expand our screening for novel cardioprotectants by testing the cardioprotective role of the Prestwick drug library that includes 1219 drugs.\n(§3) 384-well plate-based cell viability, caspase 3/7 activity assays. […] Luminescence was measured using a VarioSkan Lux Multi-Mode Reader (Thermo Scientific) with an integration time of 0.25 sec. Apoptosis was measured using Caspase 3/7-Glo (Promega) respectively according to manufacturer's instructions with an integration time of 1 sec. 10 μM staurosporine (MedChemExpress) was used as a positive control. Data were analyzed using Prism 7.0 software (GraphPad) using standard dose-response guidelines."}, "hiPSC-CMs [5]": {"tested_on": "hiPSC-CMs", "assay": "Flow cytometry-based doxorubicin uptake quantification (DOX intrinsic fluorescence)", "type": "cell-based, human", "conditions": "drug 3 μM, doxorubicin 3 μM", "description": "Patient-specific doxorubicin-induced cardiotoxicity (DIC) characterization.\nFlow cytometry. hiPSCs were dissociated with TrypLE Express (Gibco) for 3 min at RT and 1×10^6 cells were transferred to flow cytometry tubes (Falcon). For staining of surface marker, cells were stained 5 mg ml^−1 (0.5%) BSA (Sigma) in DPBS using 1:20 mouse IgG3 SSEA4-488 (BD Biosciences, 560308) for 30 min at RT then washed twice in DPBS by centrifugation. For intracellular staining, cells were fixed with 4% PFA for 20 min at RT, washed twice with DPBS, and permeabilized with 1% saponin for 15 min at RT, and stained using 1:20 mouse IgG1 POU5F1-647 (BD Biosciences, 560307), and mouse IgG1 NANOG-647 (BD Biosciences, 561300) for 30 min at RT then washed. Isotype controls mouse IgG3-488 (BD Biosciences, 563636) and mouse IgG1-647 (BD Biosciences, 565571) were used to establish gating. Cardiomyocytes were dissociated with Liberase TH as described above, fixed and permeabilized as above, and stained using 1:100 mouse monoclonal IgG1 TNNT2-647 (BD Biosciences, 565744) for 30 min at RT and washed again. Isotype controls mouse IgG1-647 (BD Biosciences, 565571) were used to establish gating. […] All cells were analyzed using a CytoFLEX (Beckman Coulter) with CytExpert 2.0 software.\nFlow cytometry-based doxorubicin uptake quantification. On day 14, cardiomyocytes were dissociated and then plated on 12-well plate (2×10^6 per well). […] Cells auto-fluorescence was assayed before doxorubicin treatment and serves as baseline fluorescence."}, "hiPSC-CMs [6]": {"tested_on": "hiPSC-CMs", "assay": "Prestwick drug library screening for cardioprotection against DOX (10 μM, 72 h) by cell viability", "type": "cell-based, human", "description": "as §1, §2, §3"}, "[7]": {"tested_on": "Mouse model of doxorubicin-induced cardiomyopathy", "assay": "Mouse model of doxorubicin-induced cardiomyopathy, echocardiographic evaluation", "type": "in vivo, C57BL/6J mice", "conditions": "desipramine 20 mg kg^−1 day^−1 infusion, doxorubicin 3 mg kg^−1 ip twice weekly, three weeks, P<0.05", "text": "Procedures followed were in accordance with Stanford University's institutional guidelines. […] For the control group, we treated mice with corn oil in the same schedule as desipramine administration. We recorded an echocardiogram once a week (day 0, day 7, day 14, and day 21) and terminated the experiment at day 21.\nFor the control group, we treated mice with corn oil in the same schedule as desipramine administration. We recorded an echocardiogram once a week (day 0, day 7, day 14, and day 21) and terminated the experiment at day 21.\nEchocardiographic evaluation. Mice were studied at baseline and weekly during the protocol under light anesthesia with isoflurane (induction 3%, maintenance 1.5%). 2D images in the parasternal short axis were obtained with a GE Vivid 7 ultrasound system (GE Healthcare) equipped with a 13 MHz transducer. Left ventricular end-systolic (LVESD) and end-diastolic (LVEDD) dimensions were measured and left ventricular fractional shortening (FS) was calculated."}}}
{"smiles": "CNCCCN1c2ccccc2CCc2ccccc21", "note": "[desipramine, 3-(5,6-dihydrobenzo[b][1]benzazepin-11-yl)-N-methylpropan-1-amine]", "values": [{"measurement": "sodium channel blockade", "setting": "sodium channel", "value": "most potent sodium channel blocker among its group"}, {"measurement": "cardiotoxicity", "setting": "[1]", "value": "causing cardiotoxicity when used chronically"}, {"measurement": "effect of co-treatment on anticancer efficacy of DOX", "setting": "[2]", "value": "did not impede the anticancer efficacy of DOX"}, {"measurement": "typical therapeutic concentration", "setting": "[3]", "value": "100 to 300", "unit": "ng/mL"}, {"measurement": "LD50 of doxorubicin with cardioprotective drug co-treatment", "setting": "hiPSC-CMs [4]", "value": 10.66, "unit": "µM"}, {"measurement": "DOX uptake in cells co-treated with drug plus doxorubicin as compared to doxorubicin only", "setting": "hiPSC-CMs [5]; after 1 h (P=0.008)", "value": "significantly lower"}, {"measurement": "DOX uptake in cells co-treated with drug plus doxorubicin as compared to doxorubicin only", "setting": "hiPSC-CMs [5]; after 3 h (P=0.04)", "value": "significantly lower"}, {"measurement": "rank among cardioprotective drugs in Prestwick library screening", "setting": "hiPSC-CMs [6]; drug 3 μM (24 h pre-treatment + co-treatment)", "value": "top ten significant cardio-protectants"}, {"measurement": "protection against DOX-induced cardiomyocyte death", "setting": "hiPSC-CMs [6]; drug 3 μM, vs DOX alone, P=0.007", "value": 2.5, "unit": "fold"}, {"measurement": "cardiac function (fractional shortening) attenuation by doxorubicin with drug compared with vehicle", "setting": "[7]", "value": "significantly less attenuated"}]}
